From PMC10599993, “The PTPN2/PTPN1 inhibitor ABBV-CLS-484 unleashes potent anti-tumour immunity” (Nature, 2023) come the findings set out here.

In one experiment the target is T1, PTPN1 (Homo sapiens, UniProt P18031).
T1 construct: full-length recombinant
The experiment in a line: mobility shift enzyme assay with labelled insulin receptor phosphopeptide. Format: biochemical.

Another experiment has as its target T2, PTPN2 (Homo sapiens, UniProt P17706).
T2 construct: full-length recombinant
The experiment is described as above. Format: biochemical.

The term IC50 denotes the concentration that gives 50% inhibition.

T1 sequence (P18031 whole entry): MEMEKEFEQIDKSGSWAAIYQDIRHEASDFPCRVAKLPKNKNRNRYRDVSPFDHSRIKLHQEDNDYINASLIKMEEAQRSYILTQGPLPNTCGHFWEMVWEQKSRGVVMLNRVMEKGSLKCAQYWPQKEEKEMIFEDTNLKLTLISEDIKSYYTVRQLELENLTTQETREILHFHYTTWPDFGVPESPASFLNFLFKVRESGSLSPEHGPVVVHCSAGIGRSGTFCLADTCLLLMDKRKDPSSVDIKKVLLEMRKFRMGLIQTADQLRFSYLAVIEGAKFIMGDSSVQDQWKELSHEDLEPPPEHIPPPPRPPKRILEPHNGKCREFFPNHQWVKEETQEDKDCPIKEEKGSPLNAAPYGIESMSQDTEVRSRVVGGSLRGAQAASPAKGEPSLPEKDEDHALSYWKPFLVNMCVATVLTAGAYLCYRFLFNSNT
T2 sequence (P17706 whole entry): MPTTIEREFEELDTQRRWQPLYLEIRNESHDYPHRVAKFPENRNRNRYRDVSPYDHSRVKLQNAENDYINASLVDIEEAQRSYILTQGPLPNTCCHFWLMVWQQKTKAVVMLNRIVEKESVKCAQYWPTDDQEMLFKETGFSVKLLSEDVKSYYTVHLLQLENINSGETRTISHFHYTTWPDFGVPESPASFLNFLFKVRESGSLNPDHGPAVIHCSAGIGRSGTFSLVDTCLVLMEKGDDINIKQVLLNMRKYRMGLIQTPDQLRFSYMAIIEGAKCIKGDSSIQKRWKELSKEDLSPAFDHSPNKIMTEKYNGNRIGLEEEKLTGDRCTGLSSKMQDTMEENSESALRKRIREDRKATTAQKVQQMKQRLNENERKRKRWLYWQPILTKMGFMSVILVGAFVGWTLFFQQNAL

As to `O=C1CN(c2c(O)cc3ccc(NCC4CC4)cc3c2F)S(=O)(=O)N1` [A-650], the IC50 on PTPN1 is 2.8 nM; on PTPN2, 3.9 nM.
